Legend:
[1] = target: T1, CAMK4 (Homo sapiens, UniProt Q16566); test: DSF; format: binding
T1 construct: purchased in-house DSF panel (SGC Frankfurt)
T1 sequence (Q16566 46-300): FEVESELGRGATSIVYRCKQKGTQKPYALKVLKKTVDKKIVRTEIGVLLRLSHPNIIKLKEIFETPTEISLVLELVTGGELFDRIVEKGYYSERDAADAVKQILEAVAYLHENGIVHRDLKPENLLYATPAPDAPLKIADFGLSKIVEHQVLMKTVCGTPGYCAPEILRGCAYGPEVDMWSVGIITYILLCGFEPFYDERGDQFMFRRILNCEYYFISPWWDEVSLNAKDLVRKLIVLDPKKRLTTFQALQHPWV
Procedure: (§1) Measurements were performed in duplicates.

[2] = target: T2, DCAMKL1 (Homo sapiens, UniProt O15075); test: DSF; format: binding
T2 construct: purchased in-house DSF panel (SGC Frankfurt)
T2 sequence (O15075 390-647): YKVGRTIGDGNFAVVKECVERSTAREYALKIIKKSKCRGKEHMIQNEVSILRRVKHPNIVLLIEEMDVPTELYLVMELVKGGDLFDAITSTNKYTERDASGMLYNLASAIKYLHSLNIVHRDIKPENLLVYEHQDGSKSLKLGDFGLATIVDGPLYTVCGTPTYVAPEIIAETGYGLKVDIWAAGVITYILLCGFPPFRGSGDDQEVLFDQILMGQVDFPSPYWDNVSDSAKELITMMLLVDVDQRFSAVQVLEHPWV
Procedure: as §1

[3] = target: T3, EPHB3 (Homo sapiens, UniProt P54753); test: DSF; format: binding
T3 construct: purchased in-house DSF panel (SGC Frankfurt)
T3 sequence (P54753 616-910): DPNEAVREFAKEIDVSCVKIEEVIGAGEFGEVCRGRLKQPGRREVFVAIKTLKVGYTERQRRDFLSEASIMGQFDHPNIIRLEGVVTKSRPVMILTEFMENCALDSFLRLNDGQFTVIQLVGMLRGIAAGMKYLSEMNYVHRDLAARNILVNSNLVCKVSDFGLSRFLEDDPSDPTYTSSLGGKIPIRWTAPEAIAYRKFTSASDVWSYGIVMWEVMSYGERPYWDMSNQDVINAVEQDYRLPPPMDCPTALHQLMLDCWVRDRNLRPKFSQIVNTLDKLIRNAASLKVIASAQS
Procedure: as §1

[4] = target: T4, MELK (Homo sapiens, UniProt Q14680); test: DSF; format: binding
T4 construct: purchased in-house DSF panel (SGC Frankfurt)
Procedure: as §1

[5] = target: T5, OSR1 (Homo sapiens, UniProt O95747); test: DSF; format: binding
T5 construct: purchased in-house DSF panel (SGC Frankfurt)
Procedure: as §1

[6] = target: T6, PAK1 (Homo sapiens, UniProt Q13153); test: DSF; format: binding
T6 construct: purchased in-house DSF panel (SGC Frankfurt)
Procedure: as §1

[7] = target: T7, STK39 (Homo sapiens, UniProt Q9UEW8); test: DSF; format: binding
T7 construct: purchased in-house DSF panel (SGC Frankfurt)
Procedure: as §1

[8] = target: T8, CDK16 (Homo sapiens, UniProt Q00536); test: DSF; format: binding; settings: 10 μM compound
T8 construct: purchased in-house DSF panel (SGC Frankfurt)
How it was run: (§2)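 Differential scanning fluorimetry follows unfolding of the protein through fluorescence of a dye that depends on folding state. The value is ΔTm, the melting-temperature shift between compound-free and compound-bound protein. Duplicate measurements.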

[9] = target: T9, CDK2 (Homo sapiens, UniProt P24941); test: DSF; format: binding; settings: 10 μM compound
T9 construct: purchased in-house DSF panel (SGC Frankfurt)
How it was run: as §2

[10] = target: T10, CAMK2B (Homo sapiens, UniProt Q13554); test: DSF; format: binding
T10 construct: purchased in-house DSF panel (SGC Frankfurt)
Procedure: (§4) Recombinant protein kinase domains with a concentration of 2 μM were mixed with a 10 μM compound solution in DMSO, 20 mM HEPES, pH 7.5, and 500 mM NaCl. SYPRO Orange (5000×, Invitrogen) was added as a fluorescence probe (1 µl per mL). Subsequently, temperature-dependent protein unfolding profiles were measured, using the QuantStudio™ 5 realtime PCR machine (Thermo Fisher, Waltham, MA, USA). […] The temperature was raised with a step rate of 3 °C per minute. Data points were analyzed with the internal software (Thermal Shift SoftwareTM Version 1.4, Thermo Fisher) using the Boltzmann equation to determine the inflection point of the transition curve [56]. Differences in melting temperature are given as ΔTm values in °C. Measurements were performed in duplicates.

[11] = target: T11, MAP2K1 (Homo sapiens, UniProt Q02750); test: DSF; format: binding
T11 construct: purchased in-house DSF panel (SGC Frankfurt)
Procedure: as §4

[12] = target: T12, PIM3 (Homo sapiens, UniProt Q86V86); test: DSF; format: binding;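 note: compound tested at 10 µM with 2 µM protein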
T12 construct: purchased in-house DSF panel (SGC Frankfurt)
Procedure: as §4

[13] = tested on: RPS6KA1; test: DSF; format: binding;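 note: compound tested at 10 µM with 2 µM protein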
Procedure: as §4

[14] = tested on: RPS6KA6; test: DSF; format: binding
Procedure: as §4

[15] = target: CDK17/Cyclin Y (Homo sapiens, UniProt Q00537); test: NanoBRET; format: cell-based; settings: read-out: NanoBRET EC50 ± SEM CDK17/Cyclin Y
Procedure: (§3) The assay was performed as described previously. In brief: Full-length kinases were obtained as plasmids cloned in frame with a terminal NanoLuc-fusion (Promega, Madison, WI, USA), as specified in table (Table S6). Plasmids were transfected into HEK293T cells using FuGENE HD (Promega, E2312) and proteins were allowed to express for 20h. Serially diluted inhibitor and NanoBRET Kinase Tracer (Promega) at a concentration determined previously as the KD,app (Table S5) were pipetted into white 384-well plates (Greiner 781207) using an Echo acoustic dispenser (Labcyte, San Jose, CA, USA). The corresponding protein-transfected cells were added and reseeded at a density of 2.5 × 10^5 cells/mL after trypsinization and resuspending in Opti-MEM without phenol red (Life Technologies, Carlsbad, CA, USA). The system was allowed to equilibrate for 2 h at 37 °C/5% CO2 prior to BRET measurements. To measure BRET, NanoBRET NanoGlo Substrate + Extracellular NanoLuc Inhibitor (Promega, N2540) was added as per the manufacturer’s protocol, and filtered luminescence was measured on a PHERAstar plate reader (BMG Labtech, Ortenberg, Germany) equipped with a luminescence filter pair (450 nm BP filter (donor) and 610 nm LP filter (acceptor)). Competitive displacement data were then graphed using GraphPad Prism 9 software using a normalized 3-parameter curve fit with the following equation: Y = 100/(1 + 10^(X–LogEC50)).

[16] = target: T13, CDK4/Cyclin D1 (Homo sapiens, UniProt P11802); test: NanoBRET; format: cell-based; settings: read-out: NanoBRET EC50 ± SEM CDK4/Cyclin D1
T13 construct: Full-length kinases were obtained as plasmids cloned in frame with a terminal NanoLuc-fusion; CS1810C118 (CCND1); host or cells: HEK293T
Procedure: as §3

[17] = target: T14, CDK9/Cyclin K (Homo sapiens, UniProt P50750); test: NanoBRET; format: cell-based; settings: read-out: NanoBRET EC50 ± SEM CDK9/Cyclin K
T14 construct: Full-length kinases were obtained as plasmids cloned in frame with a terminal NanoLuc-fusion; CS1810C93 (CCNK); host or cells: HEK293T
Procedure: as §3

[18] = target: T15, CDK9/Cyclin T1 (Homo sapiens, UniProt P50750); test: NanoBRET; format: cell-based; settings: read-out: NanoBRET EC50 ± SEM CDK9/Cyclin T1
T15 construct: Full-length kinases were obtained as plasmids cloned in frame with a terminal NanoLuc-fusion; CS1810C177 (CCNT1); host or cells: HEK293T
Procedure: as §3

T15 sequence (P50750 whole entry, the tested form may be a part): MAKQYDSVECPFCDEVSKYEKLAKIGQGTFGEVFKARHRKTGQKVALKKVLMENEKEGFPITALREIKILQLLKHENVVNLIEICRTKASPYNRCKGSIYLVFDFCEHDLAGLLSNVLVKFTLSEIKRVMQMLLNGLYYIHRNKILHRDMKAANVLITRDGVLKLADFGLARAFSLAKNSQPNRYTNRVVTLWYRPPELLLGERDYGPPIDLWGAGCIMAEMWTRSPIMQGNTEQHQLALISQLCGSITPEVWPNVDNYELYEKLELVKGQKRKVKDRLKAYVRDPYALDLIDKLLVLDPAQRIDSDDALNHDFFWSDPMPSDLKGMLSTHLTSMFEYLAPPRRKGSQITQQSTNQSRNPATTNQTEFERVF
T15 sequence (O60563 whole entry partner, the tested form may be a part): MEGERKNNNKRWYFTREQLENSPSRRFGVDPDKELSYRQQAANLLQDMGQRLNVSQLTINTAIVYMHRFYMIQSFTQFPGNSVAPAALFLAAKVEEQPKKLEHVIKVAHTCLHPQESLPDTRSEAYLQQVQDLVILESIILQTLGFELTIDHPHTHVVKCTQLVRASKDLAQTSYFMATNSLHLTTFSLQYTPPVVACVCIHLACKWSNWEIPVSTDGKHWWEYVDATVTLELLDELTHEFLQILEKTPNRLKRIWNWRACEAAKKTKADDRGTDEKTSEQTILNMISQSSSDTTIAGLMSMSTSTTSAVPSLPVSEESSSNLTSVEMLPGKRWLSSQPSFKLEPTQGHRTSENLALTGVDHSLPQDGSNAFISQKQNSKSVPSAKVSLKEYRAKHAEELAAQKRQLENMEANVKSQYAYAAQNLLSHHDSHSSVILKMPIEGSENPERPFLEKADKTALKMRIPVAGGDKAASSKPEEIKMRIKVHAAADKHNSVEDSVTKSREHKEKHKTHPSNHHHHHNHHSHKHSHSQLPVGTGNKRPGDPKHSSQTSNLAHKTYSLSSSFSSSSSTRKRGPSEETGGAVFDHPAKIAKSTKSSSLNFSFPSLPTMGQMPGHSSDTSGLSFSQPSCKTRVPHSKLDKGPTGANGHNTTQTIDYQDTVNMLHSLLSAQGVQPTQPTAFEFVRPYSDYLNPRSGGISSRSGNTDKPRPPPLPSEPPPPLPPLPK
T14 sequence (P50750 whole entry, the tested form may be a part): as the sequence (P50750 whole entry, the tested form may be a part) above
T8 sequence (Q00536 163-478): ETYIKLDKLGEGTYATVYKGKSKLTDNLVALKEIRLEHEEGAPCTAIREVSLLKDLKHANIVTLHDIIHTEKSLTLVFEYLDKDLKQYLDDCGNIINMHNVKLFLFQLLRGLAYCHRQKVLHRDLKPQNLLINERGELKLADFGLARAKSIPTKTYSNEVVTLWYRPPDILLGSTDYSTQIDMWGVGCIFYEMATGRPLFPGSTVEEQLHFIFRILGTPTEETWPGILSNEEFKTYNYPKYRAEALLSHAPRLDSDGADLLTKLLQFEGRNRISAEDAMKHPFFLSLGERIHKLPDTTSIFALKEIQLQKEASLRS
T11 sequence (Q02750 68-361): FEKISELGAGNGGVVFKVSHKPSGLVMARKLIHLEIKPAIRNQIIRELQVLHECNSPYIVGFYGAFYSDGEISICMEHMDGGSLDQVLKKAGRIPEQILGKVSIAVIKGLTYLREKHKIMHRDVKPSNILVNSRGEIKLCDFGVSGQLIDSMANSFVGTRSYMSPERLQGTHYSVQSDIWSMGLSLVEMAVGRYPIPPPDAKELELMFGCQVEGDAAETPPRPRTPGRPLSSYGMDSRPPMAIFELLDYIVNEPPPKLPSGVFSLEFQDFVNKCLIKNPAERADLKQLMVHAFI
Sequence of CDK17/Cyclin Y (Q00537 whole entry, the tested form may be a part): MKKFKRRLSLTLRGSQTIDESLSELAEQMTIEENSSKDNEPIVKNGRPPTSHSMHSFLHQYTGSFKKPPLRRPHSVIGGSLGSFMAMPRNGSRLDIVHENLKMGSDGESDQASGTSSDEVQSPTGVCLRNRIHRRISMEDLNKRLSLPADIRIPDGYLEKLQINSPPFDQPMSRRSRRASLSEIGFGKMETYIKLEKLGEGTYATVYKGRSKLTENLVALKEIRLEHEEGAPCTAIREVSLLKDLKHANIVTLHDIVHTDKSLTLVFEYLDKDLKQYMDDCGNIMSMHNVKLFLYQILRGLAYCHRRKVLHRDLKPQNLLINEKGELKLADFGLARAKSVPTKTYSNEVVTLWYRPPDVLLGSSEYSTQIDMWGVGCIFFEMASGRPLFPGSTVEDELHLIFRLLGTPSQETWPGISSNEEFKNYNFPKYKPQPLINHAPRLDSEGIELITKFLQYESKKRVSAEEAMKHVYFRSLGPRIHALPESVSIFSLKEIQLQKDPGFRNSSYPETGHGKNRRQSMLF
Sequence of CDK17/Cyclin Y (Q8ND76 2-341 partner limits assumed): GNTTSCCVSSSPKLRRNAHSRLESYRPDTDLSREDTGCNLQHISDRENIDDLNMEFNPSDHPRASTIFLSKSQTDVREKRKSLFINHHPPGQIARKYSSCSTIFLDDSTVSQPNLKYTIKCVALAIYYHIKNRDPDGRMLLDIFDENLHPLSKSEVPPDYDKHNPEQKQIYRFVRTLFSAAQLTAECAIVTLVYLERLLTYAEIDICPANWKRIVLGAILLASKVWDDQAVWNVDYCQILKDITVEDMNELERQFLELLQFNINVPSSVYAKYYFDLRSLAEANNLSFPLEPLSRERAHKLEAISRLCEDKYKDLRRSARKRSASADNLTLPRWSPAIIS
T6 sequence (Q13153 249-545): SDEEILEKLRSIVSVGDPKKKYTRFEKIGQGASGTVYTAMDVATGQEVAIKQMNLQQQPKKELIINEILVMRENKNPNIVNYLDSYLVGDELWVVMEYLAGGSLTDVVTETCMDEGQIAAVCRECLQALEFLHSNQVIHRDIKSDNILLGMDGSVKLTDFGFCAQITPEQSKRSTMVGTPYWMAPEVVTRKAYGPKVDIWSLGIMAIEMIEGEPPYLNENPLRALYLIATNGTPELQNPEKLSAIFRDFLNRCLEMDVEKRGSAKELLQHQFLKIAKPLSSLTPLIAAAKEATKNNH
T13 sequence (P11802 whole entry, the tested form may be a part): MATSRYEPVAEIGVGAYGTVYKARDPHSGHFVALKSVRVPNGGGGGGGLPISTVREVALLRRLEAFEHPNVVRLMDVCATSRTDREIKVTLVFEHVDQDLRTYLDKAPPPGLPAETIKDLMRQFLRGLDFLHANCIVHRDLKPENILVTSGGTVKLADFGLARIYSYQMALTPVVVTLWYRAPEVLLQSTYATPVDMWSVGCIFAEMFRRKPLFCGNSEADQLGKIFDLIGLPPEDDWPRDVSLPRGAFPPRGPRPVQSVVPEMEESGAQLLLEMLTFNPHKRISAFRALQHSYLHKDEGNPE
T13 sequence (P24385 whole entry partner, the tested form may be a part): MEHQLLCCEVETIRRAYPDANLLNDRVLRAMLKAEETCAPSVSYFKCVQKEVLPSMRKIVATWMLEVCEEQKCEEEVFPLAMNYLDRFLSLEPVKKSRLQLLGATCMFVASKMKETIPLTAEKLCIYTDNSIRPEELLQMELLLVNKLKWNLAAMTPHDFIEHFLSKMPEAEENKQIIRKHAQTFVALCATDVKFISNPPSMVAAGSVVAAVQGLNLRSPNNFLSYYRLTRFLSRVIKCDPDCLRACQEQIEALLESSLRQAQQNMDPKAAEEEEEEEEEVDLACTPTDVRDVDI
T10 sequence (Q13554 11-303): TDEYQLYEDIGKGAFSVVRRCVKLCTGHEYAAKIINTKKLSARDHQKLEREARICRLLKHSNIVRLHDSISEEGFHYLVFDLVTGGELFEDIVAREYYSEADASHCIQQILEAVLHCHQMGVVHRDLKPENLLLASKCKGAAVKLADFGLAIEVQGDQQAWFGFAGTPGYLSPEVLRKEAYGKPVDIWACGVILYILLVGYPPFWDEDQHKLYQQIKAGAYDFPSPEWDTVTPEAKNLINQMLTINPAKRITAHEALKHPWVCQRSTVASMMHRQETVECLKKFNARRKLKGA
T4 sequence (Q14680 whole entry): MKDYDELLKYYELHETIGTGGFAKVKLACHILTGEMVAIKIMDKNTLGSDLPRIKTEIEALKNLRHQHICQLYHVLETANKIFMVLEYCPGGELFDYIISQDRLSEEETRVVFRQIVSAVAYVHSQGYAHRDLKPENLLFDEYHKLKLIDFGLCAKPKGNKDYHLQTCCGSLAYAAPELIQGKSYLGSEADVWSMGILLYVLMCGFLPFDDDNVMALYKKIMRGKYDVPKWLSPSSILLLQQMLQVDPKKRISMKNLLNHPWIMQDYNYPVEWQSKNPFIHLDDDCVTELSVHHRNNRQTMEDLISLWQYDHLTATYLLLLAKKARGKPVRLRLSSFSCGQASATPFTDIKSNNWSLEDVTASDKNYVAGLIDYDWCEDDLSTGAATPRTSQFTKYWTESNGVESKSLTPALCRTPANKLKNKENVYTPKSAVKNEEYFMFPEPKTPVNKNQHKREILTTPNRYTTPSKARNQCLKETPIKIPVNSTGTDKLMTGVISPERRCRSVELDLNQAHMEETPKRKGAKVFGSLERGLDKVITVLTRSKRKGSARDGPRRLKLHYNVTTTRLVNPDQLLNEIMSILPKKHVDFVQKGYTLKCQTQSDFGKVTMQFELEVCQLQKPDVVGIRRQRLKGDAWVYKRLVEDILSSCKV

Row | Structure (SMILES) | ΔTm CAMK4 [1] | ΔTm DCAMKL1 [2] | ΔTm EPHB3 [3] | ΔTm MELK [4] | ΔTm OSR1 [5] | ΔTm PAK1 [6] | ΔTm STK39 [7] | ΔTm at 10 µM [8] | ΔTm at 10 µM [9] | ΔTm CAMK2B [10] | ΔTm MAP2K1 [11] | ΔTm PIM3 [12] | ΔTm RPS6KA1 [13] | ΔTm RPS6KA6 [14] | EC50 [15] | EC50 [16] | EC50 [17] | EC50 [18]
1 | CN[C@@H]1C[C@H]2O[C@@](C)([C@@H]1OC)n1c3ccccc3c3c4c(c5c6ccccc6n2c5c31)C(=O)NC4 [staurosporine, reference compound] | 8.6 °C | 12.4 °C | 5.0 °C | 13.8 °C | 7.7 °C | 6.6 °C | 9.6 °C |  |  |  |  |  |  |  |  |  |  | 
2 | COC(=O)c1cc(Nc2ccnc(NCCOCCNC(=O)OC(C)(C)C)n2)[nH]n1 [21d, methyl 5-((2-((2-(2-((tert-butoxycarbonyl)amino)ethoxy)ethyl)amino)pyrimidin-4-yl)amino)-1H-pyrazole-3-carboxylate] | -0.2 °C | 1.5 °C | 0.8 °C | 0.8 °C | 0.3 °C | 1.1 °C | 1.8 °C | 4.3 °C | 1.9 °C | 0.2 °C | 0.7 °C | 0.0 °C | 0.5 °C | -0.3 °C |  |  |  | 
3 | N#CCc1ccc(Nc2nccc(Nc3cc(C4CC4)[nH]n3)n2)cc1 [compound 1, reference compound] | 5.4 °C | 8.9 °C | 5.1 °C | 9.8 °C | 5.6 °C | 3.3 °C | 7.6 °C | 10.3 °C | 15.2 °C | 4.4 °C | 1.4 °C | 3.8 °C | 5.1 °C | 0.4 °C | 9.9 ± 1.2 nM | 93.6 ± 23.6 nM | 17.4 ± 5.4 nM | 86.5 ± 10.9 nM
4 | CC(C)(C)OC(=O)Nc1ccc(CNc2nccc(Nc3cc(C(=O)OC(C)(C)C)[nH]n3)n2)cc1 [43d, tert-butyl 3-((2-((4-((tert-butoxycarbonyl)amino)benzyl)amino)pyrimidin-4-yl)amino)-1H-pyrazole-5-carboxylate] | 1.2 °C | -2.1 °C | 1.7 °C | 0.2 °C | -0.4 °C | -0.6 °C | -0.9 °C | 9.2 °C | 3.2 °C | -0.5 °C |  | -1.6 °C | 0.2 °C |  | 21.2 nM | 2140 ± 750 nM | 993 nM | 805 ± 240 nM
5 | COC(=O)c1cc(Nc2ccnc(NCc3ccc(NC(=O)OC(C)(C)C)cc3)n2)[nH]n1 [21i, methyl 5-((2-((4-((tert-butoxycarbonyl)amino)benzyl)amino)pyrimidin-4-yl)amino)-1H-pyrazole-3-carboxylate] | -0.4 °C | -0.6 °C | 0.4 °C | 0.9 °C | 0.6 °C | -0.4 °C | 2.1 °C | 6.5 °C | 3.3 °C | 0.6 °C | -0.5 °C | -0.4 °C | 1.0 °C | -0.3 °C | 673 nM | 10900 ± 3920 nM | 7000 ± 2120 nM | 6870 ± 2190 nM
6 | CC(C)OC(=O)c1cc(Nc2ccnc(NCc3ccc(NC(=O)OC(C)(C)C)cc3)n2)n[nH]1 [42d, isopropyl 3-((2-((4-((tert-butoxycarbonyl)amino)benzyl)amino)pyrimidin-4-yl)amino)-1H-pyrazole-5-carboxylate] | 0.4 °C | -2.4 °C | 1.3 °C | -0.8 °C | -0.8 °C | -1.1 °C | -0.6 °C | 8.4 °C | 3 °C | -1.2 °C |  | -1.1 °C | -0.3 °C |  | 33.7 ± 2.5 nM | 1600 ± 409 nM | 575 ± 157 nM | 408 ± 140 nM

From article PMC9736855, “Discovery of 3-Amino-1H-pyrazole-Based Kinase Inhibitors to Illuminate the Understudied PCTAIRE Family” (International Journal of Molecular Sciences, 2022)
